Test results: patent US12006314B2, “Anti-cancer nuclear hormone receptor-targeting compounds” (Nuvation Bio Inc., priority 2021, dated 2024)

Columns and labels:
[1] = target: T1, ER Alpha-ligand binding domain (LBD) (Homo sapiens, UniProt P03372); assay: ER binding assay (LanthaScreen TR-FRET ER Alpha Competitive Binding); conditions: Fluormone ES2 Green tracer 3 nM, 2 h
T1 sequence (P03372 311-547 limits assumed): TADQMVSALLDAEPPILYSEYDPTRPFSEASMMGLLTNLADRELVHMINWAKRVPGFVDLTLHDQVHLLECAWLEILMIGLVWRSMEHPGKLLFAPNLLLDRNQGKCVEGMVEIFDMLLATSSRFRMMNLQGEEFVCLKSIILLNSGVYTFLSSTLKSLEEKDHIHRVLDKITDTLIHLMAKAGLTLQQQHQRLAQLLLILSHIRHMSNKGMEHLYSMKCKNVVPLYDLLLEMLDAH
Experimental: ER binding assay: ERα binding was assessed using the LanthaScreen® TR-FRET ER Alpha Competitive Binding kit from ThermoFisherScientific. In this assay, a terbium-labeled anti-GST antibody was used to indirectly label GST-tagged ER Alpha-ligand binding domain (LBD) by binding to its GST tag. Competitive binding to the ER Alpha-LBD (GST) was detected by a test compound's ability to displace a fluorescent ligand (Fluormone™ ES2 Green tracer) from the ER Alpha-LBD (GST), which results in a loss of FRET signal between the Tb-anti-GST antibody and the tracer. To assess ER binding, test compound (top dose 10 μM, 4 fold serial dilution, 8 point dose response) and controls (e.g. estradiol) were transferred to the assay plate. The Fluormone™ ES2 Green tracer (3 nM final concentration with assay buffer) was added to the assay plate. This was followed by addition of a mixture of the ER Alpha-LBD (GST) and terbium anti-GST antibody. After a 2 h incubation period at room temperature, the plate was read on the Envision plate reader and the TR-FRET ratio of 520:495 emissions were calculated and used to determine the IC50 from a dose response curve of the compound.

[2] = target: T2, ER (SK-BR-3 cells transfected with ERE plasmid and ER) (Homo sapiens, UniProt P03372); assay: ER antagonism assay; type: cell-based; conditions: 100 nM β-Estradiol, 24 h, Dual-glo luciferase
T2 construct: expressed in transfected cells; host or cells: SK-BR-3 (transient, lipofectamine 3000)
T2 sequence (P03372 1-595): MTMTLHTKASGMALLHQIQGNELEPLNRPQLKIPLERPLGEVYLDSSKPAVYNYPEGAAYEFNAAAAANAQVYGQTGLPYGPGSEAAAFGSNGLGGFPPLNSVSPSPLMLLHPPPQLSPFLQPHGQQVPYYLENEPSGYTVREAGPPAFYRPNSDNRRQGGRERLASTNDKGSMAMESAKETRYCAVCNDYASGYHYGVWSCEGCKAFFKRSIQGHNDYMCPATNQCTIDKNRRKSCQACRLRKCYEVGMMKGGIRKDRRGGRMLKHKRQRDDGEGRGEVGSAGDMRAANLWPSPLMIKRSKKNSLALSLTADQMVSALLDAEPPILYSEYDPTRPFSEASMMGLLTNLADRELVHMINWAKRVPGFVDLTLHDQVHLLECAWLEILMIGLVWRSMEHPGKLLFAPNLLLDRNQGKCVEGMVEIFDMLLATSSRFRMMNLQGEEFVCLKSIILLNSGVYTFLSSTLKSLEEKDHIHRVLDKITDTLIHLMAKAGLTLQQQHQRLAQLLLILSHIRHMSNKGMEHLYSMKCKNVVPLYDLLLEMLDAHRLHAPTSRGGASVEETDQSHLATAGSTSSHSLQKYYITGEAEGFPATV
Experimental: ER antagonism assay: To evaluate ER antagonist activity, SK-BR-3 cells were seeded at a density of 30000 cells/well in the assay plate. The assay plate was then incubated at 37° C., 5% CO2 for 24 h. A mixture of ERE plasmid and ER in opti-MEM media was incubated with lipofectamine 3000 in Opti-MEM media and incubated at room temperature for 15 minutes. 10 μL of this transfection mix was added to each well of the assay plate and the assay plate was incubated at 37° C., 5% CO2 for 24 h. 100 nM β-Estradiol in 10 μL medium or 10 μL medium (control wells) was added to corresponding wells of assay plate and incubated at 37° C. 5% CO2 for 24 h. After the incubation period, 50 μL of Dual-glo luciferase reagent was added to the assay plate and mixed at room temperature for 20 mins on an orbital shaker, before reading out on the EnVision plate reader. 50 μL of Stop & Glo reagent was added to assay plate, mixed at room temperature for 20 minutes, and read on the Envision plate reader.

MCF7 cells = assay: Cell viability assay MCF7; type: cell-based; conditions: Homo sapiens, MCF7, 144 h; 6 days, CellTiterGlo
Experimental: (§1) Cell viability assay: LNCap, 22Rv1, MCF7, MDAMB361, T47D, and IEC6 cells were seeded at a density of 500-2000 cells/well in 96 well plates, and a ‘T0’ (timepoint 0) was included along with the assay plate. The plates were then incubated at 37° C., 5% CO2 in a cell culture incubator overnight. On the next day, the ‘T0’ plate was assayed using CellTiterGlo (Promega, Inc) according to the manufacturer's instructions. The appropriate compounds were diluted in DMSO and added to the assay plate (final DMSO concentration of 0.1-0.2%) on the next day. The assay plates were incubated for 6 days at 37° C., 5% CO2. After the incubation period, the plates were assayed using CellTiterGlo (Promega, Inc) according to the manufacturer's instructions and luminescence was read on the EnVision plate reader. Inhibition of the tested compounds was determined by the following formula: Inhibition rate (%)=(1−(RLU compound−RLU day0)/(RLU control−RLU day0))*100%. GraphPadPrism was used to analyze the data and determine GI50/IC50 values.

MDAMB361 cells = assay: Cell viability assay MDAMB361; type: cell-based; conditions: Homo sapiens, MDA-MB-361, 144 h; 6 days, CellTiterGlo
Experimental: as §1

IEC6 cells = assay: Cell viability assay IEC6; type: cell-based; conditions: Rattus norvegicus, IEC-6, 144 h; 6 days, CellTiterGlo
Experimental: as §1

Row | IC50 [1] [nM] | IC50 [2] [nM] | GI50 (MCF7 cells) [nM] | GI50 (MDAMB361 cells) [nM] | SMILES | IC50 (IEC6 cells) [nM]
1 | ≤ 100 | ≤ 100 | ≤ 500 | > 30000 | CCc1cc2ncc(CN3CCN(C(=O)CCCCCOc4cc(F)c([C@@H]5c6[nH]c7ccccc7c6C[C@@H](C)N5CC(C)(C)F)c(F)c4)CC3)cc2[nH]c1=O [Compound 61, 7-((4-(6-(3,5-Difluoro-4-((1R,3R)-2-(2-fluoro-2-methylpropyl)-3-methyl-2,3,4,9-tetrahydro-1H-pyrido[3,4-b]indol-1-yl)phenoxy)hexanoyl)piperazin-1-yl)methyl)-3-ethyl-1,5-naphthyridin-2(1H)-one] | > 30000
2 |  | ≤ 100 | ≤ 500 | 500 to 5000 | CCc1cc2ncc(CN3CCN(CCOc4cc(F)c([C@@H]5c6[nH]c7ccccc7c6C[C@@H](C)N5CC(C)(C)F)c(F)c4)CC3)cc2[nH]c1=O [Compound 71, 7-((4-(2-(3,5-Difluoro-4-((1R,3R)-2-(2-fluoro-2-methylpropyl)-3-methyl-2,3,4,9-tetrahydro-1H-pyrido[3,4-b]indol-1-yl)phenoxy)ethyl)piperazin-1-yl)methyl)-3-ethyl-1,5-naphthyridin-2(1H)-one] | 500 to 5000
3 |  | ≤ 100 | ≤ 500 | ≤ 500 | CCc1cc2ncc(CN3CCN(CCCCCCOc4cc(F)c([C@@H]5c6[nH]c7ccccc7c6C[C@@H](C)N5CC(C)(C)F)c(F)c4)CC3)cc2[nH]c1=O [Compound 72, 7-((4-(6-(3,5-Difluoro-4-((1R,3R)-2-(2-fluoro-2-methylpropyl)-3-methyl-2,3,4,9-tetrahydro-1H-1-pyrido[3,4-b]indol-1-yl)phenoxy)hexyl)piperazin-1-yl)methyl)-3-ethyl-1,5-naphthyridin-2(1H)-one] | 5000 to 30000
4 |  | ≤ 100 | ≤ 500 | ≤ 500 | CCc1cc2ncc(CN3CCN(C(=O)COc4cc(F)c([C@@H]5c6[nH]c7ccccc7c6C[C@@H](C)N5CC(C)(C)F)c(F)c4)CC3)cc2[nH]c1=O [Compound 73, 7-((4-(2-(3,5-Difluoro-4-((1R,3R)-2-(2-fluoro-2-methylpropyl)-3-methyl-2,3,4,9-tetrahydro-1H-pyrido[3,4-b]indol-1-yl)phenoxy)acetyl)piperazin-1-yl)methyl)-3-ethyl-1,5-naphthyridin-2(1H)-one] | > 30000
5 |  | ≤ 100 | ≤ 500 | ≤ 500 | CCc1cc2ncc(CN3CCC(N(C)C(=O)COc4cc(F)c([C@@H]5c6[nH]c7ccccc7c6C[C@@H](C)N5CC(C)(C)F)c(F)c4)CC3)cc2[nH]c1=O [Compound 74, 2-(3,5-Difluoro-4-((1R,3R)-2-(2-fluoro-2-methylpropyl)-3-methyl-2,3,4,9-tetrahydro-1H-pyrido[3,4-b]indol-1-yl)phenoxy)-N-(1-((7-ethyl-6-oxo-5,6-dihydro-1,5-naphthyridin-3-yl)methyl)piperidin-4-yl)-N-methylacetamide] | 500 to 5000
